Reference: patent publication US8309685B2 (Celgene Avilomics Research, Inc., priority 2007, dated 2012)
Like-named read-outs stand apart in the source and are kept apart here.

Columns and labels:
[1] = biological target: T1, wild type HCV NS3/4A 1b protease enzyme (Hepatitis C virus genotype 1b, UniProt P26663); experiment: biochemical; assay type: biochemical; details: read-out: Inhibition, WT; WT enzyme, FRET assay
T1 construct: 10× stocks of NS3/4A protease enzyme from Bioenza (Mountain View, Calif.); purchased Bioenza (Mountain View, Calif.)

[2] = biological target: T2, A156T mutant of the HCV NS3/4A 1b protease enzyme (Hepatitis C virus genotype 1b, UniProt P26663, A1182T); experiment: HCV Protease FRET Assay (IC50), A156T mutant; assay type: biochemical; details: read-out: Inhibition, HCV A156T; A156T enzyme, FRET assay
T2 construct: 10× stocks of NS3/4A protease enzyme from Bioenza (Mountain View, Calif.); purchased Bioenza (Mountain View, Calif.)

[3] = biological target: T3, D168A mutant of the HCV NS3/4A 1b protease enzyme (Hepatitis C virus genotype 1b, UniProt P26663, D1194A); experiment: HCV Protease FRET Assay (IC50), D168A mutant; assay type: biochemical; details: read-out: Inhibition, HCV D168A; D168A enzyme, FRET assay
T3 construct: 10× stocks of NS3/4A protease enzyme from Bioenza (Mountain View, Calif.); purchased Bioenza (Mountain View, Calif.)

HCV NS3/4A protease = HCV NS3/4A protease (UniProt Q9WMX2); experiment: Method B: HCV Protease Assay using FRET Methodology; set-up: species or system Hepatitis C virus; details: read-out: Inhibition, Biochemical; Enzyme/Assay: Biochemical
Source text: Method B: HCV Protease Assay using FRET Methodology
A quantitative, fluorescence resonance energy transfer (FRET)-based methodology was employed to identify HCV NS3/4A protease inhibitors. The assay employed a synthetic FRET peptide, derived from the HCV NS5A/5B cleavage site, with the HCV protease to evaluate the activity of compounds against the protease by monitoring the cleavage activity of the complex. A synthetic peptide which encompasses the NS5A-5B junction (NH2-EDVVCCSMSYK-COOH) was labeled with Dabcyl and Edans at N- and C-termini, respectively (Invitrogen, Carlsbad, Calif.). Fluorescence measurement was used to estimate the IC50 value of the test compound. […] Upon cleavage of the FRET peptide by HCV NS3/4A proteinase complex (100 ng/mL), the fluorescence is recovered and can be continuously monitored at excitation/emission=340/490 nm.

[4] = tested on: HCV RNA replicon in cell line ET (luc-ubi-neo/ET), human Huh7 hepatoma; experiment: Method A: HCV RNA replicon antiviral assay (luciferase, ET cell line); assay type: cell-based, Hepatitis C virus; details: Hepatitis C virus, Huh-7
Procedure, shortened: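 Six 3-fold dilutions of each drug were tested on subconfluent luc-ubi-neo/ET Huh7 replicon cells (5×10^3/well) for 72 hr at 37 °C. EC50 and EC90 came from luciferase read-out, IC50 from CytoTox-1 cell number, and […]; interferon alpha-2b was run each time as control.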

[5] = tested on: cell line ET (luc-ubi-neo/ET), human Huh7 hepatoma cell line; experiment: Method A: cytotoxicity in ET replicon cells (CytoTox-1); assay type: cell-based; details: concentration decreasing cell viability by 50%, 72 hr
Procedure, shortened: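 ET cells (Huh7 carrying luciferase HCV replicon), 5×10^3 cells/well, given six 3-fold compound concentrations in DMEM with 5% FBS. After 72 hr, while subconfluent, cell number was measured with CytoTox-1 reagent. Interferon alpha-2b served as positive control.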

[6] = biological target: T4, HCV R155K (NS3/4A 1b protease) (Hepatitis C virus genotype 1b, UniProt P26663, R1181K); experiment: HCV Protease FRET Assay (IC50), R155K mutant; assay type: biochemical; details: R155K enzyme, read-out: Inhibition, HCV R155K
T4 construct: 10× stocks of NS3/4A protease enzyme from Bioenza (Mountain View, Calif.); purchased Bioenza (Mountain View, Calif.)
Procedure: HCV Protease FRET Assay for Wild Type and Mutated NS3/4A 1b Enzymes (IC50)
The protocol is a modified FRET-based assay (v—02) from In Vitro Resistance Studies of HCV Serine Protease Inhibitors, 2004, JBC, vol. 279, No. 17, pp 17508-17514.
10× stocks of NS3/4A protease enzyme from Bioenza (Mountain View, Calif.) and 1.13× 5-FAM/QXL™ 520 FRET peptide substrate from Anaspec (San Jose, Calif.) were prepared in 50 mM HEPES, pH 7.8, 100 mM NaCl, 5 mM DTT and 20% glycerol. 5 μL of each enzyme were pre-incubated in a Corning (#3573) 384-well, black, non-treated microtiter plate (Corning, N.Y.) for 30 min at 25° C. with a 0.5 μL volume of 50% DMSO and serially diluted compounds prepared in 50% DMSO. Protease reactions were started with the addition of 45 μL of the FRET substrate and monitored for 120 minutes at λex487/λem514 through Quad^4 monochromoters in a Synergy^4 plate reader from BioTek (Winooski, Vt.). At the conclusion of each assay, progress curves from each well were examined for linear reaction kinetics and fit statistics (R^2, absolute sum of squares). Initial velocity (0 minutes to 30+ minutes) from each reaction was determined from the slope of a plot of relative fluorescence units vs time (minutes) and then plotted against inhibitor concentration to estimate IC50 from log[Inhibitor] vs Response, Variable Slope model in GraphPad Prism from GraphPad Software (San Diego, Calif.).
The compound numbers correspond to the compound numbers in Table 3. […] ;

[7] = biological target: T1, wild type HCV NS3/4A 1b protease enzyme; experiment: HCV Protease FRET Assay (IC50_APP), wild type; assay type: biochemical
[8] = biological target: T2, A156T mutant of the HCV NS3/4A 1b protease enzyme; experiment: HCV Protease FRET Assay (IC50_APP), A156T mutant; assay type: biochemical; details: apparent IC50, A156T mutant; read-out: IC50_APP, HCV A156T
[9] = biological target: T3, D168A mutant of the HCV NS3/4A 1b protease enzyme; experiment: HCV Protease FRET Assay (IC50_APP), D168A mutant; assay type: biochemical; details: apparent IC50, D168A mutant; read-out: IC50_APP, HCV D168A
[10] = biological target: T5, R155K mutant of the HCV NS3/4A 1b protease enzyme (Hepatitis C virus genotype 1b, UniProt P26663, R1181K); experiment: HCV Protease FRET Assay (IC50_APP), R155K mutant; assay type: biochemical; details: apparent IC50, R155K mutant; read-out: IC50_APP, HCV R155K
T5 construct: 10× stocks of NS3/4A protease enzyme from Bioenza (Mountain View, Calif.); purchased Bioenza (Mountain View, Calif.)

[11] = biological target: T6, HCV NS3/4A wild type (genotype 1b) (Hepatitis C virus genotype 1b, UniProt P26663); experiment: Mass spectrometric analysis (MALDI-TOF) of covalent modification, HCV wild type; assay type: binding; details: 10-fold excess of compound to protein, 1 hr
T6 construct: mass spectroscopic analysis of HCV NS3/4A wild-type protease domain; purchased Bioenza Calif
Procedure: Mass spectrometric analysis of HCV wild type or HCV variant C159S in the presence of test compound was performed. 100 pmols of HCV wild type (Bioenza Calif.) was incubated with compound for 1 hr and 3 hrs at 10-fold access of […] to protein. 1 ul aliquots of the samples (total volume of 4.24 ul) were diluted with 10 ul of 0.1% TFA prior to micro C4 ZipTipping directly onto the MALDI target using Sinapinic acid as the desorption matrix (10 mg/ml in 01% TFA:Acetonitrile 50:50). Analyses were performed on a Shimadzu Biotech Axima TOF^2 (Shimadzu Instruments) matrix-assisted-laser desorption/ionization Time-of-Flight (MALDI-TOF) mass spectrometer. The same procedure was carried out on 100 pmols of HCV C159S mutant of HCV protease for 3 hrs at 10-fold excess of (I-3) to protein.
As depicted in FIGS. 2, 3, 4, and 5, mass spectrometric analysis of HCV wild type or HCV mutants in the presence of test compound (I-3) was performed. […] 1 ul aliquots of the samples were diluted with 10 ul of 0.1% TFA prior to micro C4 ZipTipping directly onto the MALDI target using Sinapinic acid as the desorption matrix (10 mg/ml in 0.1% TFA:Acetonitrile 50:50).
Mass spectrometric analysis of HCV wild type (genotype 1b) in the presence of test compounds I-73 and I-75 was performed using the following protocol: HCV NS3/4A wild type (wt) was incubated for 1 hr at a 10× fold access of test compound to protein. 2 ul aliquots of the samples were diluted with 10 ul of 0.1% TFA prior to micro C4 ZipTipping directly onto the MALDI target using Sinapinic acid as the desorption matrix (10 mg/ml in 0.1% TFA:Acetonitrile 50:50). For intact protein mass measurement the instrument was set in Linear mode using a pulsed extraction setting of 24,500 and apomyoglobin as the standard to calibrate the instrument.
Mass spectrometric analysis of HCV NS3/4A genotypes 1a, 1b, 2a, and 3a in the presence of test compound I-96 was performed using the following protocol: HCV NS3/4A was incubated for 3 hr at a 10× fold access of test compound to protein. […]

[12] = biological target: HCV protease mutant A156T (Hepatitis C virus genotype 1b, UniProt Q9WMX2, A1182T); details: biochemical assays, read-out: Comparative Ki Values, A156T; cited from earlier work
[13] = biological target: HCV protease mutant D168A (Hepatitis C virus genotype 1b, UniProt Q9WMX2, D1194A); details: biochemical assays, cited from earlier work
[14] = assay described in Example 22, read-out: Replicon (IC50)
[15] = read-out: IC50_APP, WT, apparent IC50, wild type NS3/4A 1b

Row | SMILES | IC50 [6] | IC90 ([4]; assay described in Example 22) | IC50 [4, 14] | IC50 [7, 15] | IC50 [8] | IC50 [9] | IC50 [10] | other results
1 | C=C[C@@H]1C[C@]1(NC(=O)[C@@H]1C[C@@H](Oc2cc(-c3ccccc3)nc3cc(OC)ccc23)CN1C(=O)[C@H](CNC(=O)/C=C/C)NC(=O)OC(C)(C)C)C(=O)NS(=O)(=O)c1ccccc1 [Compound I-2, N-[(1,1-dimethylethoxy)carbonyl]-3-[(2-butenoyl)amino]-L-alanyl-(4R)-4-[(7-methoxy-2-phenyl-4-quinolinyl)oxy]-L-prolyl-1-amino-2-ethenyl-N-(phenylsulfonyl)-(1R,2S)-cyclopropanecarboxamide] |  |  |  |  |  |  |  | IC50 [1]: < 10 nM; IC50 [2]: 10 to 100 nM; IC50 [3]: 1000 to 10000 nM; IC50 (HCV NS3/4A protease): 100 to 1000 nM; IC50 ([4]; Replicon, assay of Example 22, 72 hr, read-out: Inhibition, Replicon): 100 to 1000 nM; Inhibition, Cytotoxicity [5]: E (IC50≧10,000 nM)
2 | C=CC(=O)N[C@H](C)C(=O)N1C[C@H](Oc2nccc3ccc(Br)cc23)C[C@H]1C(=O)N[C@]1(C(=O)NS(=O)(=O)C2CC2)C[C@H]1C=C [Compound I-74, (2S,4R)-1-((R)-2-acrylamidopropanoyl)-4-(7-bromoisoquinolin-1-yloxy)-N-((1R,2S)-1-(cyclopropylsulfonylcarbamoyl)-2-vinylcyclopropyl)pyrrolidine-2-carboxamide] | < 10 nM | 10 to 100 nM | 10 to 100 nM | < 10 nM | 10 to 100 nM | 100 to 1000 nM | 10 to 100 nM | 
3 | C=CC(=O)NC[C@H](NC(=O)OC(C)(C)C)C(=O)N1C[C@H](Oc2nccc3ccc(Br)cc23)C[C@H]1C(=O)N[C@]1(C(=O)NS(=O)(=O)C2CC2)C[C@H]1C=C [Compound I-73, tert-butyl-(S)-3-acrylamido-1-((2S,4R)-4-(7-bromoisoquinolin-1-yloxy)-2-((1R,2S)-1-(cyclopropylsulfonylcarbamoyl)-2-vinylcyclopropylcarbamoyl)pyrrolidin-1-yl)-1-oxopropan-2-ylcarbamate] | < 10 nM | 100 to 1000 nM | 10 to 100 nM | < 10 nM | 10 to 100 nM | 100 to 1000 nM | 10 to 100 nM | 
4 | C=C[C@@H]1C[C@]1(NC(=O)[C@@H]1C[C@@H](Oc2cc(-c3ccccc3)nc3cc(OC)ccc23)CN1C(=O)[C@@H](NC(=O)OC(C)(C)C)[C@@H](C)OC(=O)/C=C/C)C(=O)NS(=O)(=O)C1CC1 [Compound I-50, (E)-((2R,3S)-3-(tert-butoxycarbonylamino)-4-((2S,4R)-2-((1R,2S)-1-(cyclopropylsulfonylcarbamoyl)-2-vinylcyclopropylcarbamoyl)-4-(7-methoxy-2-phenylquinolin-4-yloxy)pyrrolidin-1-yl)-4-oxobutan-2-yl)but-2-enoate] |  | < 10 nM | < 10 nM |  | 100 to 1000 nM | 100 to 1000 nM |  | IC50 [7]: < 10 nM; Covalent modification of HCV wild type by mass spectrometry [11]: measurable covalent modification
5 | C=C[C@@H]1C[C@]1(NC(=O)[C@@H]1C[C@@H](Oc2nccc3ccc(Br)cc23)CN1C(=O)[C@H](CCC(=O)C=C(C)C)NC(=O)OC(C)(C)C)C(=O)NS(=O)(=O)C1CC1 [Compound I-75, tert-butyl-(S)-1-((2S,4R)-4-(7-bromoisoquinolin-1-yloxy)-2-((1R,2S)-1-(cyclopropylsulfonylcarbamoyl)-2-vinylcyclopropylcarbamoyl)pyrrolidin-1-yl)-7-methyl-1,5-dioxooct-6-en-2-ylcarbamate] | 10 to 100 nM | 10 to 100 nM | < 10 nM | < 10 nM | 100 to 1000 nM | 1000 to 10000 nM | 100 to 1000 nM | 
6 | COc1ccc2c(O[C@@H]3C[C@H]4C(=O)N[C@]5(C(=O)O)C[C@H]5/C=C\CCCCC[C@H](NC(=O)OC5CCCC5)C(=O)N4C3)cc(-c3csc(NC(C)C)n3)nc2c1 [BILN 2061] |  |  |  |  |  |  |  | Ki [12]: > 1200 nM; IC50 ([13]; literature, read-out: Comparative IC50 Values, D168A): 1860 nM; Ki ([13]; read-out: Comparative Ki Values, D168A): > 1200 nM
